ChEMBL document CHEMBL1201862, “PubChem BioAssay data set” (2004)
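Each compound was tested at five concentrations against cells in 96-well plates for 48 hours. GI50 is the concentration that inhibits growth by half.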 The source made the active and inactive calls. No stated cut-off is given here; in the data, active = GI50 up to about 1.1 µM and inactive = higher.

Tests used:
Assay in all cases: DTP human tumour cell line panel, 48 h
ACHN = test system: ACHN
OVCAR-8 = test system: OVCAR-8
DU-145 = test system: DU-145
NCI-H460 = test system: NCI-H460
K562 = test system: K562
A549 = test system: A549
SNB-19 = test system: SNB-19
Hs-578T = test system: Hs-578T
SF-268 = test system: SF-268
IGROV-1 = test system: IGROV-1
Malme-3M = test system: Malme-3M
MCF7 = test system: MCF7
HL-60 = test system: HL-60
U-251 = test system: U-251
PC-3 = test system: PC-3
NCI-H226 = test system: NCI-H226
NCI/ADR-RES = test system: NCI/ADR-RES
SR = test system: SR
SK-OV-3 = test system: SK-OV-3
A498 = test system: A498

Measured: GI50

CC(=O)N1CCN(CCCCN2c3ccccc3Sc3cc(N=[N+]=[N-])ccc32)CC1
inactive: ACHN 14.9 µM | OVCAR-8 15.4 µM | DU-145 18.1 µM | NCI-H460 14.1 µM | K562 8.65 µM | A549 16.1 µM | SNB-19 14.5 µM | Hs-578T 15 µM | SF-268 18.2 µM | IGROV-1 15.2 µM | Malme-3M 17.1 µM | MCF7 14 µM | HL-60 8.87 µM | U-251 14.4 µM | PC-3 7 µM | NCI-H226 17.6 µM | NCI/ADR-RES 12.6 µM | SR 9.06 µM

COC(=O)c1ccc(Oc2nc3ccccc3nc2-c2cccs2)cc1
inactive: ACHN 71.3 µM | OVCAR-8 51.8 µM | DU-145 > 100 µM | NCI-H460 33.7 µM | K562 > 10 µM | A549 26.1 µM | SNB-19 27.5 µM | SK-OV-3 35.5 µM | Hs-578T 19.5 µM | SF-268 21.3 µM | IGROV-1 39.3 µM | Malme-3M > 100 µM | MCF7 3.16 µM | HL-60 > 100 µM | PC-3 44.9 µM | NCI/ADR-RES 64.1 µM | SR 48.5 µM

CC1(C)N[PH]2(Nc3ccccc3O2)OC1=O
inactive: ACHN 42.3 µM | OVCAR-8 82.8 µM | A498 > 100 µM | DU-145 > 100 µM | NCI-H460 45.4 µM | K562 37.9 µM | A549 32.7 µM | SNB-19 > 100 µM | SK-OV-3 > 100 µM | Hs-578T > 100 µM | SF-268 > 100 µM | IGROV-1 > 100 µM | Malme-3M 38.4 µM | MCF7 22.8 µM | HL-60 44.3 µM | U-251 70.1 µM | PC-3 41.1 µM | NCI-H226 35.9 µM | NCI/ADR-RES 49.9 µM

O=C1C=C(c2ccccc2)OC1C1Sc2ccccc2NC1=O (stereo not drawn)
inactive: ACHN 4.9 µM | OVCAR-8 9.31 µM | A498 7.89 µM | DU-145 12.7 µM | NCI-H460 2.74 µM | K562 3.3 µM | A549 3.06 µM | SNB-19 4.08 µM | SK-OV-3 8.09 µM | Hs-578T 6.11 µM | SF-268 7.71 µM | IGROV-1 11.4 µM | Malme-3M 24.3 µM | MCF7 3.81 µM | HL-60 3.15 µM | U-251 4.01 µM | PC-3 10.9 µM | NCI-H226 14.5 µM | NCI/ADR-RES 34.5 µM
